Reference: patent publication US8987449B2, “Medicine for treating ischemic brain injury and its sequelae, and preparation method thereof” (Haimin Lei, priority 2011, dated 2015)

Legend:
Format in all cases: in vivo, rat
MCAO rats [1] = assay: Grip strength test of the forelimb of MCAO rats; details: for Grip value (g) (3 d): model group 317.01 ± 53.81; for Grip value (g) (7 d): model group 285.58 ± 80.02
Excerpt: 140 healthy SD male rats, weighing 280-300 g, provided by Beijing Vital River Laboratories, certificate No.: SCXK (Jing) 2002-2003. Nylon fishing wire, diameter 0.25 mm, German; YLS-13A, grip strength meter for mice and rats, Shandong Science Technology Instrument Station. The method of [Koizumi J, Yoshida […]. Experimental studies of ischemia brain edema, I: A new experimental model of cerebral embolism in rats in which recirculation can be introduced in the ischemic area[J]. […] After the rats were anesthetized and the skin thereof was disinfected by ethanol. By cutting right in the middle of the neck, the right common carotid artery, internal carotid artery and external carotid artery were separated and the common carotid artery and external carotid artery were ligated. The internal carotid artery was clamped with a bulldog clamp. A cut was made at the crotch of the external carotid artery and the internal carotid artery followed by releasing the bulldog clamp. […] Next, the external carotid artery was ligated and the nylon wire was fixed. In sham operation group, the right common carotid artery, the external carotid artery and the internal carotid artery were only exposed and separated. The rats were routinely raised in different cages. 0.5 ml penicillin was continuously injected into every mouse for three days after the surgery. […] The rats getting 1-3 point were selected for the subsequent experiment. The MCAO rats having the same point were distributed randomly and averagely to each experimental group. […] Evaluated was the change of the grip strength of the forelimb after the cerebral ischemia. A rat was put onto the pulling board making the forepaws thereof grab the cross bar. Then the tester pulled the rat backward to make its body slide backward along the board until the release of the forepaws (during this process it was made sure that the waist of the rat carried no force). The biggest grip strength was read when the forepaws released. Test was carried out twice for every rat and the bigger value was taken. The third and the seventh days after the administration were as the observation time to carry out the test. The SPSS 11.0 software pack was used to carry out the statistical analysis of all the data. The comparison of the enumeration data was carried out with X^2 test P<0.05 had statistical meaning.

MCAO rats [2] = assay: Beam walking test of MCAO rats; details: 0-6 points; for beam walking Evaluation (3 d): model group 1.47 ± 0.84; for beam walking Evaluation (7 d): model group 1.92 ± 2.02
Excerpt: 140 healthy SD male rats, weighing 280-300 g, provided by Beijing Vital River Laboratories, certificate No.: SCXK (Jing) 2002-2003. The method of [Koizumi J, Yoshida […]. Experimental studies of ischemia brain edema, I: A new experimental model of cerebral embolism in rats in which recirculation can be introduced in the ischemic area[J]. […] After the rats were anesthetized and the skin thereof was disinfected by ethanol. By cutting right in the middle of the neck, the right common carotid artery, internal carotid artery and external carotid artery were separated and the common carotid artery and external carotid artery were ligated. The internal carotid artery was clamped with a bulldog clamp. A cut was made at the crotch of the external carotid artery and the internal carotid artery followed by releasing the bulldog clamp. […] Next, the external carotid artery was ligated and the nylon wire was fixed. In sham operation group, the right common carotid artery, the external carotid artery and the internal carotid artery were only exposed and separated. The rats were routinely raised in different cages. 0.5 ml penicillin was continuously injected into every mouse for three days after the surgery. […] The rats getting 1-3 point were selected for the subsequent experiment. The MCAO rats having the same point were distributed randomly and averagely to each experimental group. […] Beam walking test was used to evaluate the motor coordination and the integration defect after the cerebral ischemia damage. […] There was a dark box attached to one end of the beam and the rats were stimulated by noise to walk through the beam into the dark box. […] The rats were trained before the ischemia for 5 days until all the rats can get 6 point. The third and the seventh days after administration was set as the observation time to carry out the test. The SPSS 11.0 software pack was used to carry out the statistical analysis of all the data. The comparison of the enumeration data was carried out with X^2 test P<0.05 had statistical meaning.

SOD = SOD of MCAO rats (brain homogenate, kit); details: model group 40.28 ± 7.51
Procedure: 10% chloral hydrate 0.35 g/kg was injected into the abdominal cavity of a rat to anesthetize thereof. The rat was fixed as supine position. The skin was disinfected thereof by 75% medical alcohol. It was cut right in the middle of the neck. The right common carotid artery, internal carotid artery and external carotid artery were separated and the common carotid artery and external carotid artery were ligated. The internal carotid artery was clamped with a bulldog clamp. A cut was made at the crotch of the external carotid artery and the internal carotid artery followed by releasing the bulldog clamp. The nylon wire (diameter 0.25 mm, marked at a distance of 18 mm from the head end) was inserted into the cut and the insertion was stopped when some resistance was felt. The insert depth was a little longer than 18 mm to achieve the cerebral ischemia caused by middle cerebral artery occlusion. The internal carotid artery was ligated and the nylon wire was fixed. The muscle and skin were sutured layer by layer. In sham operation group, the right common carotid artery, the external carotid artery and the internal carotid artery were only exposed and separated. The rats were conventionally raised in different cages regularly. 0.5 ml penicillin was continuously injected into every rat for three days after the surgery.
The rats were divided into 7 groups in the experiment, that is, sham operation group, model group, Nimodipine group, LQC-T4 large dosage group, LQC-T4 small dosage group, TMP group, and TMP+Vanillic acid group. The model rats getting 1 point were distributed randomly into the model group and other administration group, while the rats getting 2 point and 3 point were distributed randomly into above 6 groups according the above method and sham operation group was not involved in the above grouping. 0.5% CMC-NA (1 ml·100 g^−1) was administrated intragastrically to the blank control group and the model group, two dosage group of 120 mg·kg^−1, 60 mg·kg^−1 were administrated intragastrically to the LQC-T4 (1 ml·100 g^−1) group, and 74 mg·kg^−1 TMP+46 mg·kg^−1 vanillitc acid (1 ml·100 g^−1) were administrated intragastrically, once per day continuously for 10 days.
10% chloral hydrate 0.35 g/kg was injected into the abdominal cavity to anesthetize them after the rats were administrated for 10 days. The head was cut and the brain was taken. The cranial bones were stripped, the meninges were peeled off to separate the ischemia side of the brain, the blood streak was striped and then the brain was weighed. 4 times amount of 0.9 physiological saline was added and the brain was homogenized in 0° C. ice bath. […]
It was detected with 722 type visible spectrophotometer according to the kit operation. […]

[3] = 60 mg/kg intragastrically once a day
[4] = 120 mg/kg intragastrically once a day

COCCOC(=O)C1=C(C)NC(C)=C(C(=O)OC(C)C)C1c1cccc([N+](=O)[O-])c1 (centres unmarked) [Nimodipine, reference compound]
Grip value (g) (3 d) (MCAO rats [1]; 30 mg/kg once a day): 409.08 ± 65.13 g
Grip value (g) (7 d) (MCAO rats [1]; 30 mg/kg once a day): 393.08 ± 59.61 g
beam walking Evaluation (3 d) (MCAO rats [2]; 30 mg/kg once a day): 2.71 ± 1.49
beam walking Evaluation (7 d) (MCAO rats [2]; 30 mg/kg once a day): 3.50 ± 1.71
SOD (SOD; 30 mg/kg once per day for 10 days): 79.85 ± 36.57

Cc1nc(C)c(C)nc1C [TMP, tetramethylpyrazine, reference compound]
Grip value (g) (3 d) (MCAO rats [1]; 37 mg/kg once a day): 415.19 ± 26.81 g
Grip value (g) (7 d) (MCAO rats [1]; 37 mg/kg once a day): 434.22 ± 50.23 g
beam walking Evaluation (3 d) (MCAO rats [2]; 37 mg/kg once a day): 2.86 ± 1.79
beam walking Evaluation (7 d) (MCAO rats [2]; 37 mg/kg once a day): 2.40 ± 2.32
SOD (SOD; 37 mg/kg once per day for 10 days): 61.58 ± 16.23

COc1cc(C(=O)OCc2nc(C)c(C)nc2C)ccc1OCc1nc(C)c(C)nc1C [LQC-T4, (3,5,6-trimethylpyrazine-2-yl)methyl 3-methoxy-4-((3,5,6-trimethylpyrazine-2-yl)methoxy) benzoate]
Grip value (g) (3 d) (MCAO rats [1]; [3]): 395.50 ± 16.88 g
Grip value (g) (7 d) (MCAO rats [1]; [3]): 468.81 ± 78.14 g
Grip value (g) (3 d) (MCAO rats [1]; [4]): 386.57 ± 42.35 g
Grip value (g) (7 d) (MCAO rats [1]; [4]): 421.68 ± 59.87 g
beam walking Evaluation (3 d) (MCAO rats [2]; [3]): 3.6 ± 1.76
beam walking Evaluation (7 d) (MCAO rats [2]; [3]): 3.83 ± 1.70
beam walking Evaluation (3 d) (MCAO rats [2]; [4]): 2.88 ± 1.62
beam walking Evaluation (7 d) (MCAO rats [2]; [4]): 3.20 ± 1.66
SOD (SOD; 60 mg/kg intragastrically once per day for 10 days): 75.29 ± 30.08
SOD (SOD; 120 mg/kg intragastrically once per day for 10 days): 85.03 ± 56.03
